What was measured:
Type in all cases: cell-based, human
p-AKT = assay: Western blotting of phosphorylated AKT in HHFDPC; conditions: peptide 500 nM, 5 μM, 50 μM, 24 hours, vs control not treated with the peptide, FIG. 2
Procedure: (§1) First, phosphorylated forms of AKT and ERK, which act as signaling molecules related to the proliferation of HHFDPC, were confirmed through Western blotting. Specifically, HHFDPC as in [Experiment Example 1-1] above was seeded at 4×10^5 cells/well in a 6-well culture plate, cultured in MSC complete medium (mesenchymal stem cell complete media) for 24 hours, and then the medium was replaced with serum free MSC complete medium and cultured for another 24 hours. Then, the HHFDPC was treated with the peptide of SEQ ID NO: 1 prepared in the Preparation Example at concentrations of 500 nM, 5 μM, and 50 µM, respectively, and cultured at 37° C. for 24 hours. As a positive control, minoxidil was treated at a concentration of 1 μM, and as a negative control, HHFDPC without any treatment was used. Then, Western blotting was performed to detect phosphorylated AKT and phosphorylated ERK. After washing with PBS, the cells were treated with 100 ? of lysis buffer to destroy cells, thereby obtaining cell lysate. After electrophoresis using a 10% SDS-PAGE gel, it was transferred to a PVDF membrane and blocked using 5% skim milk at room temperature for 30 minutes. […] After washing again with 0.1% PBS-T (0.1% Tween-20 in PBS) three times for 15 minutes each, p-AKT and p-ERK were detected by treatment with ECL solution (GE Healthcare, USA).

β-catenin = assay: Western blotting of β-catenin moved into the nucleus of HHFDPC; conditions: HHFDPC nuclear protein, peptide 500 nM, 5 μM, 50 μM, 24 hours, vs control, FIG. 3
Procedure: In addition, in addition to p-AKT and p-ERK, in order to confirm the activation of β-catenin, which is known to affect cell proliferation and differentiation, whether β-catenin moved into the nucleus was confirmed through Western blotting. Specifically, the HHFDPC as in [Experiment Example 1-1] was seeded in a 6-well culture plate at an amount of 4×10^5 cells/well, cultured in MSC complete medium (mesenchymal stem cell complete media) for 24 hours. Next, the medium was replaced with serum free MSC complete medium and cultured again for 24 hours. Then, the HHFDPC was treated with the peptide of SEQ ID NO: 1 prepared in the Preparation Example at concentrations of 500 nM, […], and 50 μM, respectively, and cultured at 37° C. for 24 hours. As a positive control, minoxidil was treated at a concentration of 1 μM, and as a negative control, HHFDPC without any treatment was used. After washing with PBS, proteins in the nucleus were isolated using a nuclear protein extraction kit (Thermo scientific, USA). After electrophoresis using a 10% SDS-PAGE gel, it was transferred to a PVDF membrane and blocked using 5% skim milk at room temperature for 30 minutes. […] After washing again with 0.1% PBS-T (0.1% Tween-20 in PBS) three times for 15 minutes each, β-catenin was detected by treatment with ECL solution (GE Healthcare, USA).

c-Myc = assay: RT-PCR of c-Myc in HHFDPC; conditions: peptide 500 nM, 5 μM, 50 μM, 24 hours, vs control without treatment, FIG. 4
Procedure: (§2) Furthermore, in order to determine whether the β-catenin moves to the nucleus and is activated to affect proliferation and differentiation, whether the expression of LEF-1, c-Myc and cyclin D1 (cyclin D1), which act as downstream factors, increases with β-catenin activation was confirmed through RT-PCR. Specifically, in the same manner as the previous Western blotting experiment, HHFDPC cells were cultured, treated with the peptides of the Preparation Example of the present invention at concentrations of 500 nM, 5 μM, and 50 μM, respectively, and cultured at 37° C. for 24 hours. After washing the cells with PBS, RNA was isolated by treating them with 300 […] of easy blue (intron, Korea). Then, CDNA was synthesized using a cDNA synthesis kit (enzynomics, Korea) by quantifying it with nano drop, and PCR was performed using primers for LEF-1, c-Myc and cyclin D1 (base sequences of the primers are listed in Table 2 below) and PCR premix (enzynomics, Korea). Electrophoresis was performed on a 1.5% agarose gel, and then the mRNA of LEF-1 and cyclin D1 was detected using a band analysis system (Bio-Rad gel image system).

Ha3-II = assay: RT-PCR of Ha3-II in HHORSC; conditions: peptide 500 nM, 5 μM, 50 μM, 72 hours, vs control without treatment, FIG. 6
Procedure: (§3) Specifically, HHORSC (human hair outer root sheath cell, Sciencell, USA) was seeded in a 6-well culture plate at 4×10^5 cells/well and then cultured in MSC complete medium (mesenchymal stem cell complete media) for 24 hours. Next, the medium was replaced with serum free MSC complete medium and cultured again for 24 hours. Then, the HHORSC was treated with the peptide of Preparation Example consisting of amino acid sequence of SEQ ID NO: 1 at concentrations of 500 nM, 5 μM, and 50 μM, respectively, and cultured at 37° C. for 72 hours. As a positive control, EGF was treated at a concentration of 50 nM, and as a negative control, HHORSC without any treatment was used. After washing with PBS, RNA was isolated by treating with 300 ? of easy blue (intron, Korea). Then, CDNA was synthesized using a cDNA synthesis kit (enzynomics, Korea) by quantification using nano drop, and PCR was performed using primer for Ha3-II, Keratin 14, and Keratin 19 (the base sequences of primer are listed in Table 3 below) and PCR premix (enzynomics, Korea). Electrophoresis was performed on a 1.5% agarose gel, and the mRNAs of Ha3-II, Keratin 14, and Keratin 19 were detected using a band analysis system (Bio-Rad gel image system).

LEF-1 = assay: RT-PCR of LEF-1 in HHFDPC; conditions: peptide 500 nM, 5 μM, 50 μM, 24 hours, vs control without treatment, FIG. 4
Procedure: as §2

Keratin 14 = assay: RT-PCR of Keratin 14 in HHORSC; conditions: peptide 500 nM, 5 μM, 50 μM, 72 hours, vs control without treatment, FIG. 6
Procedure: as §3

MSX2 = assay: RT-PCR of MSX2 in HHGMC; conditions: peptide 500 nM, 5 μM, 50 μM, 72 hours, vs untreated control, FIG. 7
Procedure: Specifically, HHGMC (human hair germinal matrix cell, Sciencell, USA) was seeded in a 6-well culture plate at 4×10^5 cells/well and then cultured in MSC complete medium (mesenchymal stem cell complete media) for 24 hours. Next, the medium was replaced with serum free MSC complete medium and cultured again for 24 hours. Then, the HHGMC was treated with the peptide of SEQ ID NO: 1 prepared in the Preparation Example at concentrations of 500 nM, 5 μM, and 50 µM, respectively, and cultured at 37° C. for 72 hours. As a positive control, EGF was treated at a concentration of 50 nM, and as a negative control, HHGMC without any treatment was used. After washing with PBS, RNA was isolated by treating with 300 ? of easy blue (intron, Korea). Next, cDNA was synthesized using a cDNA synthesis kit (enzynomics, Korea) by quantification using nano drop, and PCR was performed using primers for MSX2 (base sequences of primers are listed in Table 4 below) and PCR premix (enzynomics, Korea). Electrophoresis was performed on a 1.5% agarose gel, and MSX2 mRNA was detected using a band analysis system (Bio-Rad gel image system).

DKK-1 protein = assay: Western blotting of DKK-1 protein in DHT-treated HHFDPC; conditions: HHFDPC with DHT 100 nM, peptide 500 nM, 5 μM, 50 μM, 24 hours, vs negative control (DHT only), FIG. 5
Procedure: DKK-1 protein (dickkopf-related protein 1) is a hair loss-related protein known to be highly expressed in individuals with hair loss, especially male pattern hair loss, and its expression is known to be promoted by hormones such as DHT (Dihydrotestosterone). Accordingly, the expression of DKK-1 protein was induced by treating HHFDPC cells with DHT together with the peptide according to the Preparation Example of the present invention, and then the expression level of DKK-1 was measured through Western blotting to determine whether there was an effect of suppressing the expression of DKK-1 protein.
Specifically, HHFDPC as in [Experiment Example 1-1] was seeded in a 6-well culture plate at 4×10^5 cells/well and then cultured in MSC complete medium (mesenchymal stem cell complete media) for 24 hours. Next, the medium was replaced with serum free MSC complete medium and cultured again for 24 hours. In addition, the HHFDPC was treated with the peptide of SEQ ID NO: 1 prepared in Preparation Example at concentrations of 500 nM, 5 μM, and 50 μM, respectively, and at this time, DHT, an expression inducer of DKK-1 protein, was simultaneously treated at a concentration of 100 nM and then cultured at 37° C. for 24 hours. […] After washing again with 0.1% PBS-T (0.1% Tween-20 in PBS) three times for 15 minutes each, DKK-1 protein was detected by treatment with ECL solution (GE Healthcare, USA).

Keratin 19 = assay: RT-PCR of Keratin 19 in HHORSC; conditions: peptide 500 nM, 5 μM, 50 μM, 72 hours, vs control without treatment, FIG. 6
Procedure: as §3

cyclin D1 = assay: RT-PCR of cyclin D1 in HHFDPC; conditions: peptide 500 nM, 5 μM, 50 μM, 24 hours, vs control without treatment, FIG. 4
Procedure: as §2

p-ERK = assay: Western blotting of phosphorylated ERK in HHFDPC; conditions: peptide 500 nM, 5 μM, 50 μM, 24 hours, vs control not treated with the peptide, FIG. 2
Procedure: as §1

HHFDPC = assay: MTT proliferation of dermal papilla cells; conditions: peptide 500 nM, 5 μM, 50 μM, 72 hours, vs untreated control, FIG. 1
Procedure: While culturing human hair follicle dermal dermal papilla cells (HHFDPC), the absorbance was measured after treatment with the peptide of the present invention to confirm whether there was an effect of promoting the proliferation of the HHFDPC dermal papilla cells.
Specifically, HHFDPC (Sciencell, USA) was seeded at 4×10^3 cells/well in a 96-well culture plate, cultured in MSC complete medium (mesenchymal stem cell complete media, Sciencell, USA) for 24 hours, and then the medium was replaced with serum free MSC complete medium and cultured for another 24 hours. Then, the HHFDPC was treated with the peptide of SEQ ID NO: 1 prepared in the Preparation Example at concentrations of 500 nM, 5 µM, and 50 μM, respectively, and cultured at 37° C. for 72 hours. As a positive control, minoxidil was treated at a concentration of 1 μM, and as a negative control, HHFDPC without any treatment was used. Then, 10 ? of 5 mg/mL MTT solution was added and cultured in a 37° C. CO2 incubator for 4 hours to stain the cells. After removing the medium, the cells were treated with 100 μl of DMSO and shaken for 10 minutes, and the number of HHFDPC cells was confirmed by measuring absorbance at a wavelength of 540 nm using a spectrophotometer.

Question: How did the p-AKT phosphorylation (p-AKT) turn out when “CPRHENPVC [the peptide of the present invention]” was run?
Answer: The p-AKT phosphorylation was “phosphorylation was found to be increased”.

Question: And the “β-catenin moved into the nucleus” value (β-catenin)?
Answer: Its value is “migration due to activation of β-catenin increased”.

Question: And the “c-Myc mRNA” value (c-Myc)?
Answer: Its value is “the amount of mRNA increased further”.

Question: And the “Ha3-II mRNA” value (Ha3-II)?
Answer: Its value is “the amount of mRNA increased further”.

Question: And the “LEF-1 mRNA” value (LEF-1)?
Answer: Its value is “the amount of mRNA increased further”.

Question: And the “Keratin 14 mRNA” value (Keratin 14)?
Answer: The value was “the amount of mRNA increased further”.

Question: What about the “MSX2 mRNA” value (MSX2) of the same sequence?
Answer: Its value is “the amount of mRNA increased further”.

Question: What about the “amount of DKK-1 protein” value (DKK-1 protein) of the same sequence?
Answer: The value was “the amount of DKK-1 protein was found to be reduced”.

Question: What about the “Keratin 19 mRNA” value (Keratin 19) of the same sequence?
Answer: The value was “the amount of mRNA increased further”.

Question: What about the “cyclin D1 mRNA” value (cyclin D1) of the same sequence?
Answer: Its value is “the amount of mRNA increased further”.

Question: What about the p-ERK phosphorylation (p-ERK) of the same sequence?
Answer: Its p-ERK phosphorylation is “phosphorylation was found to be increased”.

Question: And the “proliferation of HHFDPC (absorbance at 540 nm, MTT)” value (HHFDPC)?
Answer: Its value is “the proliferation of HHFDPC was promoted”.

Source: patent US20240287133A1, “PEPTIDE HAVING ACTIVITY OF PREVENTING HAIR LOSS OR PROMOTING HAIR GROWTH, AND USE THEREOF” (CAREGEN CO., LTD., priority 2021, published 2024)
